Calls of active or inactive are those of the source.
Key:
[1] = molecular target: Bcl-2-like protein 10 (Homo sapiens, UniProt Q9HD36); assay: displacers of TR3 peptide from Bcl-B, primary screen, selectivity assay for Bfl-1 inhibitor project, biochemical, fluorescence polarization, FITC-TR3 peptide (AID 748);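 note: fluorescence polarization from a fluorescein-labelled TR3 peptide binding purified Bcl-B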
[2] = molecular target: T1, Estrogen receptor beta (Homo sapiens, UniProt Q92731);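 note: recombinant ER-beta bound to coactivator SRC1 peptide in presence of estradiol agonist; inhibitors block coactivator peptide binding and lower the FRET signal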
T1 sequence (Q92731 whole entry): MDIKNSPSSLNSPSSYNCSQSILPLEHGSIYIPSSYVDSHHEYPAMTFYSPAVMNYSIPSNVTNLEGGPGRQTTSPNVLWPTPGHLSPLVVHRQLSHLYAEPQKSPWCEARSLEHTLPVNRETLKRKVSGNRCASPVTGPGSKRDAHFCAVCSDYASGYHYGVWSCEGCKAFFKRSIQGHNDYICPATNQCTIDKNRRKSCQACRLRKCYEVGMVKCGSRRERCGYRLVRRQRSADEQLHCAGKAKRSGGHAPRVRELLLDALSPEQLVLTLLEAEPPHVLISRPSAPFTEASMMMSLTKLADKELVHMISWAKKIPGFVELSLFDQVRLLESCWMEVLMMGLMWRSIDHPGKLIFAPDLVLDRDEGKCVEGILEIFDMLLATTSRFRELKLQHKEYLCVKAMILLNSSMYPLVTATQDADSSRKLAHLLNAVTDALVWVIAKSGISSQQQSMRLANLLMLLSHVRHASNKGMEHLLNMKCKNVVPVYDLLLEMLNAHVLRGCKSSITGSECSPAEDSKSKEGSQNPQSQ

[3] = molecular target: T1, Estrogen receptor beta; assay: ERβ–SRC-3 coactivator interaction inhibitors, confirmation, orthogonal assay, biochemical, ELISA, streptavidin-HRP readout (AID 1060)
[4] = molecular target: Eukaryotic translation initiation factor 4H (Homo sapiens, UniProt Q15056); assay: human eIF4H binding inhibitors, primary screen, translation initiation inhibitor project, biochemical, uHTS, fluorescence polarization (AID 2012)
[5] = molecular target: Polyadenylate-binding protein 1 (Homo sapiens, UniProt P11940); assay: PABP poly(A) RNA binding inhibitors, primary screen, biochemical, fluorescence polarization, uHTS (AID 2014)
[6] = system: HeLa; assay: HeLa cell cytotoxicity, dose response, cytotoxicity control, 24 h, cherry-picked samples (AID 504726); format: functional, cell-based; conditions: Homo sapiens;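 note: potency for cytotoxicity as loss of luminescence signal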
[7] = molecular target: T2, RNA-binding protein pos-1 (Caenorhabditis elegans, UniProt G5EF15); assay: inhibitors of POS-1/mex-3 RNA binding, dose response, biochemical, fluorescence polarization (AID 1964);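 note: purified POS-1 fused to maltose binding protein made in E. coli; potency of compounds blocking POS-1 binding to fluorescent RNA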
T2 sequence (G5EF15 whole entry): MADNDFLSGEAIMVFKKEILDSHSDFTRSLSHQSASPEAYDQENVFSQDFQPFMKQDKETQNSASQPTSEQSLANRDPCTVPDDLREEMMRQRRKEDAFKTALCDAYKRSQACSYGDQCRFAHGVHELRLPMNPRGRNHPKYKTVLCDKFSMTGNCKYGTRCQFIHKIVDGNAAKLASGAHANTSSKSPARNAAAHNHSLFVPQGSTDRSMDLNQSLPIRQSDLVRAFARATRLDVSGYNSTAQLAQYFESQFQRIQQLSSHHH

[8] = molecular target: Aspartyl aminopeptidase (Plasmodium falciparum 3D7, UniProt Q8I2J3)
Aspartyl aminopeptidase, sequence (Q8I2J3 whole entry): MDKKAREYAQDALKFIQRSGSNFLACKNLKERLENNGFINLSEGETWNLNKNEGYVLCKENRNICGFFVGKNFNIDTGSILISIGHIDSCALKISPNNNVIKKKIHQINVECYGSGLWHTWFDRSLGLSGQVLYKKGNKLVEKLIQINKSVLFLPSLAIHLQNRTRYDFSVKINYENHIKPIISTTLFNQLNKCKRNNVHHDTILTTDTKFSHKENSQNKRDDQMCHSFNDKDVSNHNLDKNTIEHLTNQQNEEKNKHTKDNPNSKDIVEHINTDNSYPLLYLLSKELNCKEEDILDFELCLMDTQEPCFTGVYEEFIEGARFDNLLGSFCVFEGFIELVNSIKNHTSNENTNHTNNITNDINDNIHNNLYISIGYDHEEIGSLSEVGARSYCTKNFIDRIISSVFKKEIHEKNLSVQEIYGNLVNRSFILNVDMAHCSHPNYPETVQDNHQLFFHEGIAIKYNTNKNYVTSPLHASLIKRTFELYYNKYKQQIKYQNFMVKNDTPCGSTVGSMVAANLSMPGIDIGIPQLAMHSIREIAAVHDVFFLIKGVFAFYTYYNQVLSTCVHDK

[9] = cells; format: functional, cell-based
[10] = molecular target: Procathepsin L (Homo sapiens, UniProt P07711)
Procathepsin L, sequence (P07711 whole entry): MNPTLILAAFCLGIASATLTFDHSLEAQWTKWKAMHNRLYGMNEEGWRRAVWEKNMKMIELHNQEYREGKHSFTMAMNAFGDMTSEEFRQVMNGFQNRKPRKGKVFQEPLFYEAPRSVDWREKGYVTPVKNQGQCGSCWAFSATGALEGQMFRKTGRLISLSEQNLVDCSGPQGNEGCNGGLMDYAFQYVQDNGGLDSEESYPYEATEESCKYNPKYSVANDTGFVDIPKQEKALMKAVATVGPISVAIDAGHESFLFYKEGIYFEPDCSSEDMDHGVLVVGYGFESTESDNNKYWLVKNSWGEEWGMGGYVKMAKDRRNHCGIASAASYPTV

[11] = molecular target: T3, Zinc finger protein mex-5 (Caenorhabditis elegans, UniProt Q9XUB2); assay: MEX-5/TCR-2 RNA interaction inhibitors, dose response, biochemical, C. elegans, fluorescence polarization (AID 1960)
T3 sequence (Q9XUB2 whole entry): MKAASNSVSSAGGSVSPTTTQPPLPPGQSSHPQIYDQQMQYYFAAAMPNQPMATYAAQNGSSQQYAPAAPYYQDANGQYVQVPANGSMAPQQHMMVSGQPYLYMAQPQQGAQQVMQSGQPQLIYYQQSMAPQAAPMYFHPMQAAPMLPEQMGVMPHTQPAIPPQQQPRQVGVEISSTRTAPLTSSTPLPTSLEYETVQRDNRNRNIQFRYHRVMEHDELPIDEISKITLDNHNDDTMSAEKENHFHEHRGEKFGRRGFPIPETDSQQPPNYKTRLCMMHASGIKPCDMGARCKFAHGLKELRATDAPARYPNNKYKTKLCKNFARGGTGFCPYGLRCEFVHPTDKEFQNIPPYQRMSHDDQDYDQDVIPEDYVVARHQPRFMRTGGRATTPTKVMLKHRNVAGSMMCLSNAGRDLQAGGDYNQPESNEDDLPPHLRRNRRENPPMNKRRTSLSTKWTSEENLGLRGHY

[12] = molecular target: Large T antigen (Simian virus 40, UniProt P03070); format: functional, Betapolyomavirus macacae;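 note: Confirmatory-stage PubChem screen for compounds that inhibit SV40 T antigen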
[13] = cells; format: functional, cell-based; remark: listed apart in the source
[14] = molecular target: FAD-linked sulfhydryl oxidase ALR (Homo sapiens, UniProt P55789); assay: inhibitors of human ALR sulfhydryl oxidase, dose response, biochemical, H2O2 detection, luminescence, cherry-pick (AID 493248)
FAD-linked sulfhydryl oxidase ALR, sequence (P55789 whole entry): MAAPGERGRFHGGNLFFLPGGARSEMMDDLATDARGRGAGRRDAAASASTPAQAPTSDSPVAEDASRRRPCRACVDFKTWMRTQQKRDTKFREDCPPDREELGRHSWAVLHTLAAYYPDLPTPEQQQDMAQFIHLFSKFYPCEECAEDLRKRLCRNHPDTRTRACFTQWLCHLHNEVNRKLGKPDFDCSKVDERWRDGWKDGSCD

[15] = molecular target: Mu-type opioid receptor (Homo sapiens, UniProt P35372); format: functional, cell-based;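 note: U2OS cells with beta-arrestin recruitment to OPRM1 by beta-gal complementation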
Mu-type opioid receptor, sequence (P35372 whole entry): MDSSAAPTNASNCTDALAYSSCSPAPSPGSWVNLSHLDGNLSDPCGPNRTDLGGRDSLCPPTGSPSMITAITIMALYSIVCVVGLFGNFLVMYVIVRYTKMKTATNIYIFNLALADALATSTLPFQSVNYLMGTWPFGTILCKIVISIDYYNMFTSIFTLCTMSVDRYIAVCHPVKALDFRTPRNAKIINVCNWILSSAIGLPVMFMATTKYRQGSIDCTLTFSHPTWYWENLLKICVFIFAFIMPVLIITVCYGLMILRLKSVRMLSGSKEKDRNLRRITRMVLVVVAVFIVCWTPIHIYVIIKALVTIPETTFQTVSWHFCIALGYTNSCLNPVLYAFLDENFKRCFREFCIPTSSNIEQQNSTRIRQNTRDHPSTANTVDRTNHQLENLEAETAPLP

[16] = molecular target: 5-hydroxytryptamine receptor 2A (Mus musculus, UniProt P35363); format: functional, cell-based;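 note: CHO-K1 cells with tagged receptor and beta-arrestin; agonist potency measured as compound-induced activation of the receptor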
5-hydroxytryptamine receptor 2A, sequence (P35363 whole entry): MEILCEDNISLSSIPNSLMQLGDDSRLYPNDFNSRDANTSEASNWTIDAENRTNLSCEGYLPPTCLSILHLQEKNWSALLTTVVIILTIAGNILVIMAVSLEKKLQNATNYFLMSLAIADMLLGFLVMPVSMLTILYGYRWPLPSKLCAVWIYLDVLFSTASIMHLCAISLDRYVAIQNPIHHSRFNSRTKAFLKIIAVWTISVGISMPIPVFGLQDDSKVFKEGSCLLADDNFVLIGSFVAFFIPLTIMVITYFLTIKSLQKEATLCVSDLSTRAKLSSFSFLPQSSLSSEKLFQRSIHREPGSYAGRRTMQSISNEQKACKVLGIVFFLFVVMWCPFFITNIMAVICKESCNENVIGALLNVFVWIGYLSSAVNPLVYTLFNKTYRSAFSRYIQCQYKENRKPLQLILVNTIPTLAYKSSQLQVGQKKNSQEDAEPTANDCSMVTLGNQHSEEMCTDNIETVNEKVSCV

[17] = molecular target: T4, DNA repair and recombination protein RAD54-like (Homo sapiens, UniProt Q92698); assay: inhibitors of human RAD54 branch migration, confirmation, biochemical, fluorescence, cherry-picked samples, dose series (AID 651657); format: functional
T4 sequence (Q92698 whole entry): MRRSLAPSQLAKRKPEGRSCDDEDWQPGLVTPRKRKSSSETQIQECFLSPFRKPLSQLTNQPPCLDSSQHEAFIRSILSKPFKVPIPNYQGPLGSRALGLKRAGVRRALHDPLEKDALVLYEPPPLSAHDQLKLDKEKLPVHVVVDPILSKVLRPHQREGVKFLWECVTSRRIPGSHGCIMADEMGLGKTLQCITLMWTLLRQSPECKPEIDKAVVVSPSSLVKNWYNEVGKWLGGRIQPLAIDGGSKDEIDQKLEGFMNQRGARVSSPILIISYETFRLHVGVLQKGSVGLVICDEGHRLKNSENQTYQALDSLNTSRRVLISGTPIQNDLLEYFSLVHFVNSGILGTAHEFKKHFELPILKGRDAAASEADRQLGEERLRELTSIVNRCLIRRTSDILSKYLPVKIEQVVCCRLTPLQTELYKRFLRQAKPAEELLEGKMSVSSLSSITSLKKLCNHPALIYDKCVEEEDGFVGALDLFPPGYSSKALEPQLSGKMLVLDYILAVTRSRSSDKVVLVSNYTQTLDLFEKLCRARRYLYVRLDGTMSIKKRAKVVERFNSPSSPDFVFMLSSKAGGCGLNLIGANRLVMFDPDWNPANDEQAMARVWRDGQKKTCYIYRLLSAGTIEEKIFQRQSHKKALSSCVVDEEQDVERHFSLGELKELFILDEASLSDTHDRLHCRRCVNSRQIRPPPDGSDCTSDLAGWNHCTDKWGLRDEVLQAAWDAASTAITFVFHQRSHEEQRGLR

[18] = inhibitors of intracellular T. cruzi replication, confirmation, NIH3T3 host cells, beta-gal luminescence (AID 2044); format: functional, cell-based;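 note: intracellular parasites grown in NIH/3T3 mouse fibroblasts as host cells; luminescent beta-galactosidase reporter signal from transgenic T. cruzi replicating inside host cells; inhibitors lower the luminescence signal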
[19] = cytotoxicity toward NIH3T3 fibroblasts, dose response, counter-screen, cell-based, ATP luminescence, mouse fibroblasts (AID 2010); format: functional;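 note: cells exposed to compound for about 90 hours before reading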
[20] = molecular target: Neurotensin receptor type 1 (Homo sapiens, UniProt P30989); format: functional;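 note: Image-based confirmatory dose-response assay measuring agonist activity at NTR1; NTR1-expressing U2OS osteosarcoma cells imaged for beta-arrestin GFP spot formation; agonist potency where compounds increase beta-arrestin recruitment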
Neurotensin receptor type 1, sequence (P30989 whole entry): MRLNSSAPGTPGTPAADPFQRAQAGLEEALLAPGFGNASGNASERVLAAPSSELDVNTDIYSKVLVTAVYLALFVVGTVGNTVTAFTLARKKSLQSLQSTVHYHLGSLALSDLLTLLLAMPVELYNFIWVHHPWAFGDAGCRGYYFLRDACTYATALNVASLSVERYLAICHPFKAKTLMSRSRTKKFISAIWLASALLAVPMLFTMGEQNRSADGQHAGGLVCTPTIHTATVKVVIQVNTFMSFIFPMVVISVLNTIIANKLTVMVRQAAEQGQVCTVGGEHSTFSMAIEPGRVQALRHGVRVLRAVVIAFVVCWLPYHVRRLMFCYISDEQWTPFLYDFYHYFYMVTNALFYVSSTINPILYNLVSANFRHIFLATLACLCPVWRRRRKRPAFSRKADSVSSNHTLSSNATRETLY

[21] = system: INS1; assay: beta cell apoptosis inhibitors, cytokine rescue, dose response, luminescence, retest (AID 449756); format: functional, cell-based; conditions: Rattus norvegicus;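 note: cell death triggered by IL-1 beta plus TNF-alpha plus IFN-gamma mixture; protective hits raise ATP signal compared with cytokine alone wells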
[22] = molecular target: Melanocortin receptor 4 (Homo sapiens, UniProt P32245); format: functional, cell-based;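 note: Cell-based assay with luminescence read-out, confirmatory dose-response testing for agonist activity of biased ligands at MC4R; human U2OS cells with tagged receptor and beta-arrestin; potency of agonists that increase receptor coupling to beta-arrestin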
Melanocortin receptor 4, sequence (P32245 whole entry): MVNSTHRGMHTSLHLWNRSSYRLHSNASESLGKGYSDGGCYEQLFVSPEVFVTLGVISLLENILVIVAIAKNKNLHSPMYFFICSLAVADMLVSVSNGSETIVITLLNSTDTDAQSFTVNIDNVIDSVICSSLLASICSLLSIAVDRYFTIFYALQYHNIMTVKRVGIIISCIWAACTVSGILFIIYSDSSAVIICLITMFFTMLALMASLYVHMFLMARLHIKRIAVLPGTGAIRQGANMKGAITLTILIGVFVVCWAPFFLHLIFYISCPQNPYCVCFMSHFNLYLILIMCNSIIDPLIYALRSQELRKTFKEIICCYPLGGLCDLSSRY

[23] = MDA-MB-231 cell growth inhibition, dose response, cytotoxicity control for RAD54 inhibitor project, CellTiter-Glo luminescence, cherry-pick (AID 651692); format: functional, cell-based
[24] = HEK293T cytotoxicity, dose response, cytotoxicity control for miR-122 modulator project, cell-based, activator set, cherry-pick (AID 720690); format: functional;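 note: HEK293T human cells scored for general mammalian cytotoxicity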
[25] = molecular target: T5, Tyrosine-protein phosphatase non-receptor type 7 (Homo sapiens, UniProt P35236); format: functional
T5 sequence (P35236 whole entry): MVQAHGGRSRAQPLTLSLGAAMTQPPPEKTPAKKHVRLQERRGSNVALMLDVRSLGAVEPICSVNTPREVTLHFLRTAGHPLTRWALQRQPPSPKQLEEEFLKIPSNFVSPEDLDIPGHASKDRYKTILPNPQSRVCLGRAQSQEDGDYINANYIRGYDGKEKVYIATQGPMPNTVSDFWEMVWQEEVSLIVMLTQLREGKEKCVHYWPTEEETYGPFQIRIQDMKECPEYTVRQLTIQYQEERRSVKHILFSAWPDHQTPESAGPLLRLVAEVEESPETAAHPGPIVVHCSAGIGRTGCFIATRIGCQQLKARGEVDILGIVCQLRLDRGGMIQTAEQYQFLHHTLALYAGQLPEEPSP

[26] = molecular target: Glyceraldehyde-3-phosphate dehydrogenase (Homo sapiens, UniProt P04406)
Glyceraldehyde-3-phosphate dehydrogenase, sequence (P04406 whole entry): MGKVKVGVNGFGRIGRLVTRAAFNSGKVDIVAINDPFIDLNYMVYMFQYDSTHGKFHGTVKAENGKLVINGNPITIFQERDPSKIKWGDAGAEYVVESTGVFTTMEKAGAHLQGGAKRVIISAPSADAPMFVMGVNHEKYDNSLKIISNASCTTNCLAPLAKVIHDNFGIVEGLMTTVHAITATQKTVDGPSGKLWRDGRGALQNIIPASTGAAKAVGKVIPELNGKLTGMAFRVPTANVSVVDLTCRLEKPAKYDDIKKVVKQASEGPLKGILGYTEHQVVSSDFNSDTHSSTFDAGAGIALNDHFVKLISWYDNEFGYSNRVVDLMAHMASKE

[27] = molecular target: T6, Dual specificity protein phosphatase 6 (Rattus norvegicus, UniProt Q64346)
T6 sequence (Q64346 whole entry): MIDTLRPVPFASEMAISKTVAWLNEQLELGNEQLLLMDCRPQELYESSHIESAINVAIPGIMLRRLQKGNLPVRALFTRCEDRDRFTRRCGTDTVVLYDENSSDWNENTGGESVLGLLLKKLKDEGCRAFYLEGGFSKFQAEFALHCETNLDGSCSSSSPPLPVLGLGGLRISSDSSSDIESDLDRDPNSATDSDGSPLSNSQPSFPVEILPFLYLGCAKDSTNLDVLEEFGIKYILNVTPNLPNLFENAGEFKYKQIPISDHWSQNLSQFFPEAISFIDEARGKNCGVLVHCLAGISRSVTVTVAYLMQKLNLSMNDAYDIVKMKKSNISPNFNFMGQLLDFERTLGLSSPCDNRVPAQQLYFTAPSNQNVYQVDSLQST

[28] = molecular target: T7, Dual specificity protein phosphatase 3 (Homo sapiens, UniProt P51452); assay: SAR VHR1 Fluorescent Assay for In Vitro dose response studies. [Related pubchem assays (depositor defined):AID1654, AID1661, AID1878, AID1992, AID2004, AID2070, AID2085]; format: functional
T7 sequence (P51452 whole entry): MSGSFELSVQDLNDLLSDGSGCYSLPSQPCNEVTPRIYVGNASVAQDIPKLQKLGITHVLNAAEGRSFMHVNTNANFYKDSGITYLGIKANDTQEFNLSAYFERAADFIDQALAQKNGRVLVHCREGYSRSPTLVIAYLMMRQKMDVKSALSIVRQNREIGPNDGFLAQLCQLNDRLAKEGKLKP

[29] = molecular target: T7, Dual specificity protein phosphatase 3; assay: MOA VHR1 Fluorescent secondary assay for identification of redox-state modulating compounds. [Related pubchem assays (depositor defined):AID1654, AID1661, AID1878, AID1957]
[30] = molecular target: T5, Tyrosine-protein phosphatase non-receptor type 7; assay: redox-dependent HePTP inhibition, mechanism study, biochemical, fluorescence (AID 2068); format: functional
[31] = molecular target: T6, Dual specificity protein phosphatase 6; format: functional
[32] = system: Streptococcus sp. 'group A'; assay: growth inhibition of control SK(-) GAS strain, dose response, counter-screen for streptokinase expression inhibitor project, luminescence, kanamycin, BacTiterGlo, confirmation (AID 1900); format: functional, organism-based
[33] = molecular target: T8, Streptokinase A (Streptococcus pyogenes serotype M1, UniProt P10520); assay: S. pyogenes streptokinase expression inhibitors, potency, dose response, plasminogen activation absorbance, OD405 (AID 1914); format: functional, Streptococcus pyogenes M1 GAS;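 note: secreted streptokinase activity via plasminogen activation per viability signal from cell pellet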
T8 sequence (P10520 whole entry): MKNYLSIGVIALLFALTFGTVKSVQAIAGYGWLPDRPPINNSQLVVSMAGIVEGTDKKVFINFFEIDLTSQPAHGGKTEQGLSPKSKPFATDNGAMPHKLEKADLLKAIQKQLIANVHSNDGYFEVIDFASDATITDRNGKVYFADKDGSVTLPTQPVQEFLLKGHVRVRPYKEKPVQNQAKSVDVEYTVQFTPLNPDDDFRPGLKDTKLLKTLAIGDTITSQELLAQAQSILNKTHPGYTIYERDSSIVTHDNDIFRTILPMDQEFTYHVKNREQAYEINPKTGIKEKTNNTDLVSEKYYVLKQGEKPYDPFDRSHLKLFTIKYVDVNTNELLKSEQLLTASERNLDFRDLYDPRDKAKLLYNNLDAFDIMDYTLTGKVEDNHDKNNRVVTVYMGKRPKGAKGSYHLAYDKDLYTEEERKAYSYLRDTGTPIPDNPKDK

[34] = growth suppression of PTEN-null colon cells, dose response, cell-based, HCT116 PTEN knockout (AID 1047); format: functional;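 note: HCT116 colon tumor cells with PTEN knocked out; cells exposed to compound for 60 hours before readout; potency for loss of cell viability measured by luminescence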
[35] = growth suppression of beta-catenin-knockout colon cells, dose response, cell-based, HCT116, human colon tumor (AID 1045); format: functional;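 note: HCT116 colon tumor cells with beta catenin knocked out; cells exposed to compound for 60 hours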
[36] = system: Streptococcus; assay: Group A Streptococcus viability loss, dose response, counter-screen for streptokinase expression inhibitor project, luminescence, BacTiterGlo (AID 1915); format: functional, organism-based;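 note: potency for reduction of bacterial viability or growth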
[37] = molecular target: Scavenger receptor class B member 1 (Mus musculus, UniProt Q61009); assay: inhibitors of SR-BI mediated HDL lipid uptake, dose response, ldlA[mSR-BI] cells, fluorescence, cherry pick (AID 493194); format: functional, cell-based;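 note: cellular uptake of fluorescent DiI-labeled HDL measured as cell fluorescence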
Scavenger receptor class B member 1, sequence (Q61009 whole entry): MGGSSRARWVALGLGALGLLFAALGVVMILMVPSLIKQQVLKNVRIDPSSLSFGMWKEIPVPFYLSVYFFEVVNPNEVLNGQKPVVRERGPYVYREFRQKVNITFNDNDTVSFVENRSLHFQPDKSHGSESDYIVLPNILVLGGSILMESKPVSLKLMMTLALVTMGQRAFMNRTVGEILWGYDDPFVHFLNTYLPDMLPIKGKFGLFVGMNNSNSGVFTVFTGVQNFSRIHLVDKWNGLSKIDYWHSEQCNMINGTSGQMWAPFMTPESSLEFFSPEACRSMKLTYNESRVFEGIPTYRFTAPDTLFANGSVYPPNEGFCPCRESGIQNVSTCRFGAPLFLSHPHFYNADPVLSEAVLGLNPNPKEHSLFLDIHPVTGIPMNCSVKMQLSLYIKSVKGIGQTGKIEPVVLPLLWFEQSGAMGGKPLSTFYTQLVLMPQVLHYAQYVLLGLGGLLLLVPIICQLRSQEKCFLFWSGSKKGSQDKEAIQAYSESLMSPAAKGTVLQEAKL

[38] = molecular target: Neuropeptides B/W receptor type 1 (Homo sapiens, UniProt P48145); assay: Fluorescence-based dose response cell-based high throughput screening assay to identify antagonists of the G-protein coupled receptor 7 (GPR7). [Related pubchem assays: 1952 (Screening assay (GPR7 antagonists).), 1880 (Summary AID.)]; format: functional
[39] = molecular target: Melanin-concentrating hormone receptor 1 (Homo sapiens, UniProt Q99705); assay: Fluorescence-based counterscreen for antagonists of the G-protein coupled receptor 7 (GPR7): cell-based high throughput dose response assay to identify antagonists of the melanin-concentrating hormone receptor 1 (MCHR1).; format: functional
Melanin-concentrating hormone receptor 1, sequence (Q99705 whole entry): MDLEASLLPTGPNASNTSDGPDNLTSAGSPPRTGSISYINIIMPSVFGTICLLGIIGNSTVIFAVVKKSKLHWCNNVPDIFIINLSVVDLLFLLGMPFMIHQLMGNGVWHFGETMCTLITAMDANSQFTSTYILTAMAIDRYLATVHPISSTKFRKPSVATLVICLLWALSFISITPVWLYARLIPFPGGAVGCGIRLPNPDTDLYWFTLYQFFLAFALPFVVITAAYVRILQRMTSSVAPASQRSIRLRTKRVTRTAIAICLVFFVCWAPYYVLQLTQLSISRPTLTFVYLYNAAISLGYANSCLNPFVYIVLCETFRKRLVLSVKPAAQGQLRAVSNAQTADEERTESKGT

Bcl-2-like protein 10, sequence (Q9HD36 whole entry): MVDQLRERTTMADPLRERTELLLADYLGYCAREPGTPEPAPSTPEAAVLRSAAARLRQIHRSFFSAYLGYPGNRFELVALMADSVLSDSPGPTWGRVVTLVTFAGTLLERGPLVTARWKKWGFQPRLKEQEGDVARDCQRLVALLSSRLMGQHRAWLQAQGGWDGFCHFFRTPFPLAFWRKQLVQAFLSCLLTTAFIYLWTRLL

CCOc1ccc2[nH]c(=O)c(=O)[nH]c2c1
IC50 [1]: > 50 µM (inactive) | IC50 [2]: > 50 µM (not active) | IC50 [3]: 12.2 µM (not active)

CCc1ccc(NS(=O)(=O)c2ccc(C)c(C(=O)N3CCOCC3)c2)cc1
IC50 [4]: > 100 µM (inactive) | IC50 [5]: 6.21 µM (active)

COC(=O)c1ccc(Oc2nc(Nc3ccc(F)cc3)nc(N3CCCC3)n2)cc1
AC50 [6]: 289 µM (active)

Oc1ccc(CCNc2c3ccccc3nc3ccccc23)cc1O
EC50 [7]: > 300 µM (not active) | IC50 [8]: 2.49 µM (active) | EC50 [9]: > 350 µM (not active) | IC50 [10]: > 59.6 µM (not active) | EC50 [11]: 10.1 µM (active) | IC50 [12]: 8.41 µM (active) | EC50 [13]: > 350 µM (not active) | AC50 [14]: 2.76 µM (active) | EC50 [15]: 92.5 µM (inactive) | EC50 [16]: 76.1 µM (inactive) | AC50 [17]: 1.87 µM (active)

Cc1cc(C)cc(OCC(O)CN2CCC(CN3C(=O)c4cccc5cccc(c45)C3=O)CC2)c1 (stereo not given)
EC50 [18]: 1.82 µM (active) | EC50 [19]: 9.92 µM (active) | EC50 [20]: 18.6 µM (active) | AC50 [21]: 5.59 µM (active) | EC50 [22]: > 89.2 µM (inactive) | AC50 [23]: 23.6 µM (active) | AC50 [17]: 7.63 µM (active) | AC50 [24]: 15.9 µM (active)

O=c1/c(=C/c2ccc(-c3cc(Cl)cc(Cl)c3)o2)sc2nc3cc(Br)cnc3n12
IC50 [25]: > 100 µM (not active) | IC50 [26]: > 100 µM (not active) | IC50 [27]: > 100 µM (inactive) | IC50 [28]: 8.81 µM (active) | IC50 [29]: 2.23 µM (active) | IC50 [30]: 1.15 µM (active) | IC50 [31]: > 100 µM (inactive)

COc1ccc(-c2nc(-c3ccc4c(c3)OCO4)[nH]c2-c2ccc(OC)cc2)cc1
EC50 [32]: 2.62 µM (active) | EC50 [33]: 2.07 µM (active) | EC50 [34]: 16.7 µM (active) | EC50 [35]: 19.2 µM (active) | EC50 [36]: > 150 µM (not active) | AC50 [37]: 18.1 µM (active)

Clc1ccc(CN(Cc2ccc(Cl)cc2)c2nnn[nH]2)cc1
IC50 [38]: > 14.6 µM (not active) | IC50 [39]: > 14.6 µM (not active)
